Data from ChEMBL document CHEMBL1781990, “Synthesis and pharmacological activity of O-aminoalkyl derivatives of 7-hydroxycoumarin” (2011).
In brackets after ≈: the same amount, converted by molar mass. Activity calls are given as the source filed them. The calls are words filed in the database; no cut-off is given here.

Assays:
Micrococcus luteus [1] = assay: Antibacterial against Micrococcus luteus ATCC 9341 after 24 hrs by NCCLS M7-A6 method; type: functional
Bacillus subtilis [2] = assay: Antibacterial against Bacillus subtilis ATCC 6633 after 24 hrs by NCCLS M7-A6 method; type: functional; conditions: Bacillus subtilis, ATCC 6633, 24 h; read-out: MIC
Bacillus cereus [3] = assay: Antibacterial against Bacillus cereus ATCC 11778 after 24 hrs by NCCLS M7-A6 method; type: functional; conditions: Bacillus cereus, ATCC 11778, 24 h; read-out: MIC
Staphylococcus aureus [4] = assay: Antibacterial against Staphylococcus aureus ATCC 6538 after 24 hrs by NCCLS M7-A6 method; type: functional; conditions: ATCC 6538, 24 h
Staphylococcus aureus [5] = assay: Antibacterial against Staphylococcus aureus ATCC 6538P after 24 hrs by NCCLS M7-A6 method; type: functional
Escherichia coli [6] = assay: Antibacterial against Escherichia coli ATCC 10536 after 24 hrs by NCCLS M7-A6 method; type: functional; conditions: ATCC 10536, 24 h
Bacillus subtilis [7] = assay: Antibacterial against Bacillus subtilis ATCC 6633 at 20 mg/mL after 24 hrs by NCCLS M7-A6 method; type: functional, organism-based
Bacillus cereus [8] = assay: Antibacterial against Bacillus cereus ATCC 11778 at 20 mg/mL after 24 hrs by NCCLS M7-A6 method; type: functional, organism-based
Staphylococcus aureus [9] = assay: Antibacterial against Staphylococcus aureus ATCC 6538 at 20 mg/mL after 24 hrs by NCCLS M7-A6 method; type: functional, organism-based
Staphylococcus aureus [10] = assay: Antibacterial against Staphylococcus aureus ATCC 6538P at 20 mg/mL after 24 hrs by NCCLS M7-A6 method; type: functional, organism-based
Escherichia coli [11] = assay: Antibacterial against Escherichia coli ATCC 8739 at 20 mg/mL after 24 hrs by NCCLS M7-A6 method; type: functional, organism-based
Escherichia coli [12] = assay: Antibacterial against Escherichia coli ATCC 10536 at 20 mg/mL after 24 hrs by NCCLS M7-A6 method; type: functional, organism-based
Micrococcus luteus [13] = assay: Antibacterial against Micrococcus luteus ATCC 9341 at 20 mg/mL after 24 hrs by NCCLS M7-A6 method; type: functional, organism-based
Micrococcus luteus [14] = assay: Antibacterial against Micrococcus luteus ATCC 10240 at 20 mg/mL after 24 hrs by NCCLS M7-A6 method; type: functional, organism-based
CCRF-CEM = assay: Cytotoxicity against human CCRF-CEM cells assessed as cell growth inhibition at 10^-5 M; type: functional, cell-based
HOP-92 = assay: Cytotoxicity against human HOP92 cells assessed as cell growth inhibition at 10^-5 M; type: functional, cell-based
HCC 2998 = assay: Cytotoxicity against human HCC2998 cells assessed as cell growth inhibition at 10^-5 M; type: functional, cell-based
[15] = Micrococcus luteus, ATCC 9341, 24 h, read-out: MIC

SMILES | MIC (Micrococcus luteus [1]; [15]) | MIC (Bacillus subtilis [2]) | MIC (Bacillus cereus [3]) | MIC (Staphylococcus aureus [4]) | MIC (Staphylococcus aureus [5]) | MIC (Escherichia coli [6]) | MIC (Micrococcus luteus [1]) | Activity (Bacillus subtilis [7]) | Activity (Bacillus cereus [8]) | Activity (Staphylococcus aureus [9]) | Activity (Staphylococcus aureus [10]) | Activity (Escherichia coli [11]) | Activity (Escherichia coli [12]) | Activity (Micrococcus luteus [13]) | Activity (Micrococcus luteus [14]) | growth inhibition (GI) (CCRF-CEM) | growth inhibition (GI) (HOP-92) | growth inhibition (GI) (HCC 2998)
CC(=O)c1c(OCCN2CCOCC2)ccc2c(C)cc(=O)oc12 | 30.2 mM (≈ 10 mg/mL) | – | – | – | – | – | – | inactive | inactive | inactive | inactive | inactive | inactive | – | – | – | – | –
CC(=O)c1cc2c(C)cc(=O)oc2cc1O | 45.8 mM (≈ 9.99 mg/mL) | 22.9 mM (≈ 5 mg/mL) | 4.6 mM (≈ 1 mg/mL) | 45.8 mM (≈ 9.99 mg/mL) | – | – | – | – | – | – | inactive | inactive | inactive | – | – | – | – | –
Cc1cc(=O)oc2cc(OCCN(C)Cc3ccccc3)ccc12 | 40.7 mM (≈ 13.2 mg/mL) | – | – | – | – | – | – | inactive | inactive | inactive | inactive | inactive | inactive | – | – | – | – | –
CC(=O)c1cc2c(C)cc(=O)oc2cc1OCCN(C(C)C)C(C)C | 37.5 mM (≈ 13 mg/mL) | 12.5 mM (≈ 4.32 mg/mL) | 12.5 mM (≈ 4.32 mg/mL) | – | – | – | – | – | – | inactive | inactive | inactive | inactive | – | – | – | – | –
CC(C)N(CCOc1ccc2ccc(=O)oc2c1)C(C)C | 46 mM (≈ 13.3 mg/mL) | 46 mM (≈ 13.3 mg/mL) | 30.7 mM (≈ 8.88 mg/mL) | – | 61.4 mM (≈ 17.8 mg/mL) | 46 mM (≈ 13.3 mg/mL) | – | – | – | inactive | – | – | – | – | – | – | – | –
O=c1ccc2ccc(O)cc2o1 | – | – | – | – | – | – | – | inactive | inactive | inactive | inactive | inactive | inactive | inactive | inactive | – | – | –
Cc1cc(=O)oc2cc(O)ccc12 [HYMECROMONE] | – | – | 85.1 mM (≈ 15 mg/mL) | – | – | – | – | inactive | – | inactive | inactive | inactive | inactive | inactive | inactive | – | – | –
CC(=O)c1cc2c(C)cc(=O)oc2cc1OCCN1CCOCC1 | 30.2 mM (≈ 10 mg/mL) | 30.2 mM (≈ 10 mg/mL) | 30.2 mM (≈ 10 mg/mL) | 30.2 mM (≈ 10 mg/mL) | 30.2 mM (≈ 10 mg/mL) | 30.2 mM (≈ 10 mg/mL) | – | – | – | – | – | – | – | – | – | Active | Active | Active
CCN(CC)CCOc1ccc2c(C)cc(=O)oc2c1C(C)=O.Cl | – | – | – | – | – | – | 3.5 mM | – | – | – | – | – | – | – | – | – | – | –
CCN(CC)CCOc1ccc2c(C)cc(=O)oc2c1C(C)=O | – | – | – | – | – | – | – | inactive | inactive | inactive | inactive | inactive | inactive | – | – | – | – | –

Now from value to compound, other results behind:

MIC (Micrococcus luteus [1]; [15]) | MIC (Bacillus subtilis [2]) | MIC (Bacillus cereus [3]) | MIC (Staphylococcus aureus [4]) | MIC (Staphylococcus aureus [5]) | MIC (Escherichia coli [6]) | MIC (Micrococcus luteus [1]) | SMILES | Activity (Bacillus subtilis [7]) | Activity (Bacillus cereus [8]) | Activity (Staphylococcus aureus [9]) | Activity (Staphylococcus aureus [10]) | Activity (Escherichia coli [11]) | Activity (Escherichia coli [12]) | Activity (Micrococcus luteus [13]) | Activity (Micrococcus luteus [14]) | growth inhibition (GI) (CCRF-CEM) | growth inhibition (GI) (HOP-92) | growth inhibition (GI) (HCC 2998)
14.4 mM (≈ 4.34 mg/mL) | 14.4 mM (≈ 4.34 mg/mL) | 28.8 mM (≈ 8.68 mg/mL) | 43.2 mM (≈ 13 mg/mL) | 28.8 mM (≈ 8.68 mg/mL) | 14.4 mM (≈ 4.34 mg/mL) | – | Cc1cc(=O)oc2cc(OCCN3CCCCC3C)ccc12 (configuration not stated) | – | – | – | – | – | – | – | – | – | – | –
8.6 mM (≈ 2.49 mg/mL) | 69.1 mM (≈ 20 mg/mL) | 69.1 mM (≈ 20 mg/mL) | – | 69.1 mM (≈ 20 mg/mL) | 51.8 mM (≈ 15 mg/mL) | – | Cc1cc(=O)oc2cc(OCCN3CCOCC3)ccc12 | – | – | inactive | – | – | – | – | – | – | – | –
22.6 mM | 22.6 mM | 45.1 mM | – | – | – | – | Cc1cc(=O)oc2cc(OCC[N+]3(C)CCCCC3C)ccc12 (configuration not stated) | – | – | inactive | inactive | inactive | inactive | – | – | – | – | –
1.4 mM | 21.9 mM | 21.2 mM | 21.2 mM | 21.2 mM | 21.2 mM | – | C[N+](C)(CCOc1ccc2ccc(=O)oc2c1)Cc1ccccc1 | – | – | – | – | – | – | – | – | – | – | –
18.2 mM (≈ 5.01 mg/mL) | 72.6 mM (≈ 20 mg/mL) | 72.6 mM (≈ 20 mg/mL) | 72.6 mM (≈ 20 mg/mL) | 36.3 mM (≈ 9.99 mg/mL) | 36.3 mM (≈ 9.99 mg/mL) | – | O=c1ccc2ccc(OCCN3CCOCC3)cc2o1 | – | – | – | – | – | – | – | – | – | – | –
